#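 Results reflect a 48-hour exposure of cells in 96-well plates to compound at five concentrations. The concentration for 50% growth inhibition is given as GI50.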 The source made the active and inactive calls. Cut-off read from the data, not from the text of the source: active = GI50 up to about 1.1 µM and inactive = higher.
# Tests used:
# Assay in all cases: inhibition of tumour cell growth, NCI panel, 48 h
# COLO 205 = test system: COLO 205
# U-251 = test system: U-251
# M14 = test system: M14
# UACC-62 = test system: UACC-62
# A498 = test system: A498
# MDA-MB-231 = test system: MDA-MB-231
# SF-295 = test system: SF-295
# CCRF-CEM = test system: CCRF-CEM
# NCI-H226 = test system: NCI-H226
# SK-MEL-2 = test system: SK-MEL-2
# RXF 393 = test system: RXF 393
# HCT-15 = test system: HCT-15
# SN12C = test system: SN12C
# HT-29 = test system: HT-29
# LOX IMVI = test system: LOX IMVI
# HCC 2998 = test system: HCC 2998
# A549 = test system: A549
# SR = test system: SR
# OVCAR-4 = test system: OVCAR-4
# NCI-H522 = test system: NCI-H522
Compound,GI50 (COLO 205),GI50 (U-251),GI50 (M14),GI50 (UACC-62),GI50 (A498),GI50 (MDA-MB-231),GI50 (SF-295),GI50 (CCRF-CEM),GI50 (NCI-H226),GI50 (SK-MEL-2),GI50 (RXF 393),GI50 (HCT-15) [µM],GI50 (SN12C),GI50 (HT-29),GI50 (LOX IMVI),GI50 (HCC 2998),GI50 (A549),GI50 (SR),GI50 (OVCAR-4),GI50 (NCI-H522)
CC1CC/C(=C\c2ccc(F)cc2)C2=C1C(c1ccc(F)cc1)N1C(=O)CSC1=N2 (stereo not given),> 100 µM (inactive),93.3 µM (inactive),> 100 µM (inactive),> 100 µM (inactive),57 µM (inactive),> 100 µM (inactive),45.6 µM (inactive),41.2 µM (inactive),53 µM (inactive),> 100 µM (inactive),21.7 µM (inactive),43.3,> 100 µM (inactive),23.2 µM (inactive),44 µM (inactive),–,–,–,–,–
COc1ccc(NC(=O)/C(=N/O)C(C)=O)cc1,–,> 100 µM (inactive),> 100 µM (inactive),> 100 µM (inactive),> 100 µM (inactive),–,> 100 µM (inactive),75.3 µM (inactive),> 100 µM (inactive),> 100 µM (inactive),> 100 µM (inactive),17.5,> 100 µM (inactive),> 100 µM (inactive),30.8 µM (inactive),> 100 µM (inactive),> 100 µM (inactive),> 100 µM (inactive),–,–
Cc1nc(Nc2ccc(Cl)cc2)sc1C(=O)Nc1cccc2c(=O)[nH][nH]c(=O)c12,16 µM (inactive),34.3 µM (inactive),17.6 µM (inactive),0.439 µM (active),22.8 µM (inactive),–,24.7 µM (inactive),16.9 µM (inactive),83.6 µM (inactive),30.4 µM (inactive),28.6 µM (inactive),21.8,36.1 µM (inactive),16.8 µM (inactive),13.6 µM (inactive),39.5 µM (inactive),33.1 µM (inactive),21 µM (inactive),49.4 µM (inactive),23.5 µM (inactive)
COc1cccc(C2CC23C(=O)NC(=O)NC3=O)c1 (stereo not given),> 100 µM (inactive),> 100 µM (inactive),> 100 µM (inactive),> 100 µM (inactive),> 100 µM (inactive),–,> 100 µM (inactive),> 100 µM (inactive),> 100 µM (inactive),> 100 µM (inactive),–,> 100,> 100 µM (inactive),> 100 µM (inactive),> 100 µM (inactive),> 100 µM (inactive),> 100 µM (inactive),> 100 µM (inactive),> 100 µM (inactive),> 100 µM (inactive)
CCOC(=O)C(NC(=O)Nc1ccc(Cl)cc1)(OC)C(F)(F)F (stereo not given),12.2 µM (inactive),52.5 µM (inactive),8.24 µM (inactive),–,14 µM (inactive),–,–,–,–,0.973 µM (active),> 100 µM (inactive),0.248,41 µM (inactive),> 100 µM (inactive),> 100 µM (inactive),7.45 µM (inactive),8.49 µM (inactive),9.23 µM (inactive),–,–
Cc1ccc2c3c4c(ccc13)C(C)(C)OC4=C(C(C)C)C2=O,31.3 µM (inactive),79.8 µM (inactive),45.1 µM (inactive),50.9 µM (inactive),> 100 µM (inactive),> 100 µM (inactive),88.3 µM (inactive),48.4 µM (inactive),5.4 µM (inactive),17 µM (inactive),17.4 µM (inactive),32.5,> 100 µM (inactive),13.8 µM (inactive),–,39.8 µM (inactive),55.5 µM (inactive),–,65.5 µM (inactive),26.8 µM (inactive)
COc1ccc(C)cc1NC(=S)N/N=C/c1ccco1,21.8 µM (inactive),–,34.6 µM (inactive),46.8 µM (inactive),57.3 µM (inactive),–,40.2 µM (inactive),29 µM (inactive),25.9 µM (inactive),16.6 µM (inactive),52.1 µM (inactive),34.2,45.3 µM (inactive),29 µM (inactive),43.1 µM (inactive),36.5 µM (inactive),48.4 µM (inactive),11.3 µM (inactive),37.4 µM (inactive),22.8 µM (inactive)
O=C(NNC(=O)c1c(Cl)c(Cl)c(Cl)c(Cl)c1-c1nc2ccccc2[nH]1)c1ccc(Cl)cc1,32.1 µM (inactive),–,35.5 µM (inactive),56.4 µM (inactive),54.5 µM (inactive),–,44.5 µM (inactive),22.4 µM (inactive),43.4 µM (inactive),37.9 µM (inactive),43.4 µM (inactive),34.4,37.7 µM (inactive),58.6 µM (inactive),65.9 µM (inactive),–,45 µM (inactive),33.8 µM (inactive),50.2 µM (inactive),49.8 µM (inactive)
Cc1ccc(S(=O)(=O)N2CCCN(S(=O)(=O)c3ccc(C)cc3)CCN(S(=O)(=O)c3ccc(C)cc3)CCCSCC2)cc1,> 100 µM (inactive),76.7 µM (inactive),> 100 µM (inactive),> 100 µM (inactive),> 100 µM (inactive),59.3 µM (inactive),89.7 µM (inactive),> 100 µM (inactive),> 100 µM (inactive),> 100 µM (inactive),> 100 µM (inactive),–,> 100 µM (inactive),> 100 µM (inactive),–,> 100 µM (inactive),> 100 µM (inactive),–,> 100 µM (inactive),–

# Source: ChEMBL document CHEMBL1201862, “PubChem BioAssay data set” (2004)
